Reference: patent US4206125A, “5-[2-[(2,3-Dihydro-1,4-benzodioxan-2-ylmethyl)amino]-1-hydrox yethyl]-2-hydroxybenzoic acid derivatives” (Richardson-Merrell Inc., priority 1979, dated 1980)

Key:
[1] = tested on: α-Adrenergic receptor; assay: α-Adrenergic receptor blocking activity, isolated rabbit aortic strip, norepinephrine as agonist; assay type: cell-based; conditions: contractile response
Description: α-Adrenergic receptor blocking activity is determined in vitro by performing cumulative dose-response experiments in the isolated rabbit aortic strip preparation using norepinephrine as the agonist. The contractile response of the rabbit strip preparation in the presence of logarithmically increasing concentrations of the compounds being tested are expressed as percent of the maximal attainable response. Relative antagonistic potency is expressed as a pA2 value.

[2] = biological target: T1, β-Adrenergic receptor (Cavia porcellus, UniProt H0W3H1); assay: β-Adrenergic receptor blocking activity, isolated guinea pig atria, isoproterenol as agonist; assay type: cell-based; conditions: increase in rate, read-out: pA2 value (β-adrenergic receptor blocking activity) (converted)
T1 construct: isolated guinea pig atria preparation; from tissue; host or cells: isolated guinea pig atria
T1 sequence (H0W3H1 1-470): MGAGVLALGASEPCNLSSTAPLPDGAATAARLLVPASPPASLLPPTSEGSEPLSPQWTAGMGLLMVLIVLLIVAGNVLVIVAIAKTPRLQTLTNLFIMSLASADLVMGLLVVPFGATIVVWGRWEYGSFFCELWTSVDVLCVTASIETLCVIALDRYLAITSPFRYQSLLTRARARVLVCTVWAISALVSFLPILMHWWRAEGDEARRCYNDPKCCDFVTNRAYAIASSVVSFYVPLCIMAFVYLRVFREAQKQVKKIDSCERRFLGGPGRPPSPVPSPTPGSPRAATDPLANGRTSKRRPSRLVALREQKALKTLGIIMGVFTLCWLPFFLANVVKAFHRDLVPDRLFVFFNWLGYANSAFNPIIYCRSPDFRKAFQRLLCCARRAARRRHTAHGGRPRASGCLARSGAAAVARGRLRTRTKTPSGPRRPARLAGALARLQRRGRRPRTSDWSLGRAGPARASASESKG
Description: β-Adrenergic receptor blocking activity is determined in vitro by performing cumulative dose-response experiments in the isolated guinea pig atria preparation using isoproterenol as the agonist. The response (increase in rate) of the guinea pig atria preparation in the presence of logarithmically increasing concentrations of the compounds being tested are expressed as percent of the maximal attainable response. Relative antagonistic potency is expressed as a pA2 value, as defined above.

[3] = tested on: systolic blood pressure of spontaneously hypertensive rats (SHR); assay: Antihypertensive activity in spontaneously hypertensive rats (SHR); assay type: in vivo, rat; conditions: SHR Okomoto-Aoki strain; oral dose of 50 mg/kg; one hour following administration
Description: Antihypertensive activity is determined in spontaneously hypertensive rats (SHR) of the Okomoto-Aoki strain. Systolic blood pressure of the SHR is measured from the caudal artery by means of an indirect method utilizing a photocell transducer/trail cuff occluder system. Time response relationships are determined for each compound following an oral dose of 50 mg/kg. Data are expressed as mm of Hg decrease from control values. Statistical significance is determined using a 2 tailed "t" test comparing drug treatment response values to those obtained from concurrent vehicle treated animals. Under these conditions the compound 5-[2-[(2,3-dihydro-1,4-benzodioxan-2-ylmethyl)amino]-1-hydroxyethyl]-2-hydroxybenzamide lowered blood pressure by 24 mm of Hg one hour following administration of the drug substance.

NC(=O)c1cc(C(O)CNCC2COc3ccccc3O2)ccc1O (stereo not drawn) [5-[2-[(2,3-dihydro-1,4-benzodioxan-2-ylmethyl)amino]-1-hydroxyethyl]-2-hydroxybenzamide]
pA2 value (α-adrenergic receptor blocking activity) [1]: 6.20
Kb [2]: 1450 nM
systolic blood pressure decrease from control values [3]: 24 mm of Hg
